Reference: patent US20260285850A1, “SUBSTITUTED OXAZOLIDINONES AND IMIDAZOLINONES AS HERBICIDES” (FMC CORPORATION, priority 2023, published 2026)

Key:
Format in all cases: in vivo
[1] = test system: kochia (Bassia scoparia); assay: Test A postemergence application, visual injury rating 0-100; conditions: 10 days
Method in brief: (§1)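 Compounds formulated in a non-phytotoxic solvent with surfactant are sprayed onto soil of freshly planted loam-sand pots ahead of emergence, or onto emerged plants 2-10 cm tall. After a 10-day greenhouse period, each species is scored visually for injury against untreated controls.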

[2] = test system: wheat (Triticum aestivum); assay: as above; conditions: 10 days
Method in brief: as §1

[3] = test system: barnyardgrass (Echinochloa crus-galli); assay: as above; conditions: 10 days
Method in brief: as §1

[4] = test system: galium (catchweed bedstraw, Galium aparine); assay: as above; conditions: 10 days
Method in brief: as §1

[5] = test system: horseweed (Erigeron canadensis); assay: as above; conditions: 10 days
Method in brief: as §1

[6] = test system: oat, wild (wild oat, Avena fatua); assay: as above; conditions: 10 days
Method in brief: as §1

[7] = test system: ryegrass, Italian (italian ryegrass, Lolium multiflorum); assay: as above; conditions: 10 days
Method in brief: as §1

[8] = test system: blackgrass (Alopecurus myosuroides); assay: as above; conditions: 10 days
Method in brief: as §1

[9] = test system: palmer (palmer amaranth, palmer pigweed, Amaranthus palmeri); assay: as above; conditions: 10 days
Method in brief: as §1

[10] = test system: corn (Zea mays); assay: as above; conditions: 10 days
Method in brief: as §1

[11] = test system: ragweed (common ragweed, Ambrosia artemisiifolia); assay: as above; conditions: 10 days
Method in brief: as §1

[12] = test system: green foxtail (Setaria viridis); assay: as above; conditions: 10 days
Method in brief: as §1

[13] = test system: soybean (Glycine max); assay: as above; conditions: 10 days
Method in brief: as §1

[14] = test system: kochia (Bassia scoparia); assay: Test A preemergence soil spray, visual injury rating 0-100; conditions: 10 days, 0 = no effect, 100 = complete control
Method in brief: as §1

[15] = test system: wheat (Triticum aestivum); assay: as above; conditions: 10 days, 0 = no effect, 100 = complete control
Method in brief: as §1

[16] = test system: barnyardgrass (Echinochloa crus-galli); assay: as above; conditions: 10 days, 0 = no effect, 100 = complete control
Method in brief: as §1

[17] = test system: oat, wild (wild oat, Avena fatua); assay: as above; conditions: 10 days, 0 = no effect, 100 = complete control
Method in brief: as §1

[18] = test system: ryegrass, Italian (italian ryegrass, Lolium multiflorum); assay: as above; conditions: 10 days, 0 = no effect, 100 = complete control
Method in brief: as §1

[19] = test system: blackgrass (Alopecurus myosuroides); assay: as above; conditions: 10 days, 0 = no effect, 100 = complete control
Method in brief: as §1

[20] = test system: palmer (palmer amaranth, palmer pigweed, Amaranthus palmeri); assay: as above; conditions: 10 days, 0 = no effect, 100 = complete control
Method in brief: as §1

[21] = test system: corn (Zea mays); assay: as above; conditions: 10 days, 0 = no effect, 100 = complete control
Method in brief: as §1

[22] = test system: ragweed (common ragweed, Ambrosia artemisiifolia); assay: as above; conditions: 10 days, 0 = no effect, 100 = complete control
Method in brief: as §1

[23] = test system: green foxtail (Setaria viridis); assay: as above; conditions: 10 days, 0 = no effect, 100 = complete control
Method in brief: as §1

[24] = test system: soybean (Glycine max); assay: as above; conditions: 10 days, 0 = no effect, 100 = complete control
Method in brief: as §1

[25] = test system: sedge, umbrella (small-flower umbrella sedge, Cyperus difformis); assay: Test B flooded paddy test, visual plant response rating 0-100; conditions: 250 g ai/ha, Flood, applied to paddy water, evaluated after 13 days
Method in brief: (§2)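 Greenhouse, 13 d. Seedlings at 2-leaf stage, pots flooded to 3 cm, compound delivered into floodwater, water level held constant. Evaluated visually relative to controls.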

[26] = test system: ducksalad (Heteranthera limosa); assay: as above; conditions: 250 g ai/ha, Flood, applied to paddy water, evaluated after 13 days
Method in brief: as §2

[27] = test system: barnyardgrass (Echinochloa crusgalli); assay: as above; conditions: 250 g ai/ha, Flood, applied to paddy water, evaluated after 13 days
Method in brief: as §2

[28] = test system: rice (Oryza sativa); assay: as above; conditions: 250 g ai/ha, Flood, applied to paddy water, evaluated after 13 days
Method in brief: as §2

[29] = 31 g ai/ha, postemergence, 0 = no effect, 100 = complete control
[30] = Postemergence, 125 g ai/ha, 0 is no effect, 100 is complete control

CCOC(=O)C1=CCC(NC(=O)C2(C)CN(c3cc(F)cc(F)c3)C(=O)O2)C1 (stereo not shown) [Compound 15]
90: Wheat plant response rating (0-100) [2, 29] | Wheat plant response rating (0 to 100 scale) [2, 30] | Galium plant response rating (0 to 100 scale) [4, 30] | Oat, Wild plant response rating (0-100) [6, 29] | Oat, Wild plant response rating (0 to 100 scale) [6, 30] | Ryegrass, Italian plant response rating (0 to 100 scale) [7, 30] | Amaranth, Palmer / Pigweed, Palmer plant response rating (0 to 100 scale) [9, 30] | Foxtail, Green plant response rating (0-100) [12, 29] | Foxtail, Green plant response rating (0 to 100 scale) [12, 30] | Kochia plant response rating (0 to 100 scale) ([14]; 125 g ai/ha) | Wheat plant response rating (0 to 100 scale) ([15]; 125 g ai/ha) | Ryegrass, Italian plant response rating (0 to 100 scale) ([18]; 125 g ai/ha)
80: Galium plant response rating (0-100) [4, 29] | Ryegrass, Italian plant response rating (0-100) [7, 29] | Ryegrass, Italian plant response rating (0-100) ([18]; 31 g ai/ha) | Plant response rating, Ducksalad (0 to 100 scale, 0 is no effect and 100 is complete control) [26]
0: Horseweed plant response rating (0-100) [5, 29] | Horseweed plant response rating (0 to 100 scale) [5, 30] | Kochia plant response rating (0-100) ([14]; 31 g ai/ha) | Barnyardgrass plant response rating (0-100) ([16]; 31 g ai/ha) | Oat, Wild plant response rating (0-100) ([17]; 31 g ai/ha) | Blackgrass plant response rating (0-100) ([19]; 31 g ai/ha) | Ragweed plant response rating (0-100) ([22]; 31 g ai/ha) | Ragweed plant response rating (0 to 100 scale) ([22]; 125 g ai/ha) | Soybean plant response rating (0-100) ([24]; 31 g ai/ha)
40: Ragweed plant response rating (0-100) [11, 29] | Blackgrass plant response rating (0 to 100 scale) ([19]; 125 g ai/ha)
20: Corn plant response rating (0-100) ([21]; 31 g ai/ha)
70: Kochia plant response rating (0-100) [1, 29] | Kochia plant response rating (0 to 100 scale) [1, 30] | Blackgrass plant response rating (0-100) [8, 29] | Soybean plant response rating (0 to 100 scale) [13, 30] | Plant response rating, Sedge, Umbrella (0 to 100 scale, 0 is no effect and 100 is complete control) [25]
100: Barnyardgrass plant response rating (0-100) [3, 29] | Barnyardgrass plant response rating (0 to 100 scale) [3, 30] | Blackgrass plant response rating (0 to 100 scale) [8, 30] | Corn plant response rating (0-100) [10, 29] | Corn plant response rating (0 to 100 scale) [10, 30] | Barnyardgrass plant response rating (0 to 100 scale) ([16]; 125 g ai/ha) | Amaranth, Palmer plant response rating (0 to 100 scale) ([20]; 125 g ai/ha) | Foxtail, Green plant response rating (0 to 100 scale) ([23]; 125 g ai/ha)
50: Amaranth, Palmer plant response rating (0-100) [9, 29] | Ragweed plant response rating (0 to 100 scale) [11, 30] | Wheat plant response rating (0-100) ([15]; 31 g ai/ha) | Oat, Wild plant response rating (0 to 100 scale) ([17]; 125 g ai/ha) | Amaranth, Palmer plant response rating (0-100) ([20]; 31 g ai/ha)
30: Foxtail, Green plant response rating (0-100) ([23]; 31 g ai/ha) | Soybean plant response rating (0 to 100 scale) ([24]; 125 g ai/ha)
65: Plant response rating, Rice (0 to 100 scale, 0 is no effect and 100 is complete control) [28]
60: Soybean plant response rating (0-100) [13, 29] | Corn plant response rating (0 to 100 scale) ([21]; 125 g ai/ha) | Plant response rating, Barnyardgrass (0 to 100 scale, 0 is no effect and 100 is complete control) [27]
